Where no end group is shown, it is not given here.
Tests used:
P2X2/3 receptors [1] = target: T1, P2X2/3 receptors (Rattus norvegicus, UniProt P49653+P49654); conditions: agonist sensitivity, dorsal root ganglia neurons; read-out: sensitivity of P2X2/3 receptor to agonist (Kd); cited from earlier work
T1 construct: In the membranes of dorsal root ganglia, along with P2X3 receptors, P2X2 and P2X2/3 receptors are also found; endogenous in cells; host or cells: acutely isolated dorsal root ganglion neurons of 9-12-day Wistar rats
T1 sequence (P49653 1-472): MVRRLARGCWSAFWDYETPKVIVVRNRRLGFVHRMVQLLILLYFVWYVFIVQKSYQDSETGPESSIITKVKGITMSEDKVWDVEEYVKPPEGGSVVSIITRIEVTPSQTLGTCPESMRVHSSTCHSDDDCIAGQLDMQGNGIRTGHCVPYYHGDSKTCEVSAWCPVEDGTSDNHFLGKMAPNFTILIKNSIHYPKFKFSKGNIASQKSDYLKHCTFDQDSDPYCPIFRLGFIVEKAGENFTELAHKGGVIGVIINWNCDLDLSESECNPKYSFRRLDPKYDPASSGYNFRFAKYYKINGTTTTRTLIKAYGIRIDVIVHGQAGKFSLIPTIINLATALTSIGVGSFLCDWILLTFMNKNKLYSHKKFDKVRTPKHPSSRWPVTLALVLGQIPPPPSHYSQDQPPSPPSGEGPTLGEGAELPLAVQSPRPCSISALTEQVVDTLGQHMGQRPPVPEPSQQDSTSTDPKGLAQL
T1 sequence (P49654 1-397): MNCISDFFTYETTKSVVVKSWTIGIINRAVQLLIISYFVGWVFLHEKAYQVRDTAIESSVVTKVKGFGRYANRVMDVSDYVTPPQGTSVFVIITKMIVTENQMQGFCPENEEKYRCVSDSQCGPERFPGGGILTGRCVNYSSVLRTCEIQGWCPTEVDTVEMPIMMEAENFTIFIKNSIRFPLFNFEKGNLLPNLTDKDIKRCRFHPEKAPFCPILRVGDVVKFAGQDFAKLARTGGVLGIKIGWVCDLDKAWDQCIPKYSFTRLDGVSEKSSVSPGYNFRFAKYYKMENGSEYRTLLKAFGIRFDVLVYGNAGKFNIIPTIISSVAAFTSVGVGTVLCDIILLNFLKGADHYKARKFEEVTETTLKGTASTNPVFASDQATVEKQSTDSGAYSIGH

P2X2 receptors [2] = target: T2, P2X2 receptors (Rattus norvegicus, UniProt P49653); conditions: agonist activation; cited from earlier work
T2 construct: In the membranes of dorsal root ganglia, along with P2X3 receptors, P2X2 and P2X2/3 receptors are also found; endogenous in cells; host or cells: acutely isolated dorsal root ganglion neurons of 9-12-day Wistar rats
T2 sequence (P49653 1-472): T1 sequence (P49653 1-472)

P2X2/3 receptors [3] = target: T1, P2X2/3 receptors; experiment: Whole-cell patch clamp of P2X2/3-mediated currents in rat dorsal root ganglia neurons; type: cell-based; conditions: PT6 50 nM (FIG. 2)
Procedure: (§1) In the membranes of dorsal root ganglia, along with P2X3 receptors, P2X2 and P2X2/3 receptors are also found [Burgard E. C. et al. P2X receptor-mediated ionic currents in dorsal root ganglion neurons//J. Neurophysiol., 1999, V. 82, P. 1590-1598]. The time for exit of P2X3 receptors from desensitization is very large compared to P2X2 and P2X2/3 receptors. With the agonist application for 1 min, all observed responses, except for the first, are mediated by P2X2 and P2X2/3 receptors. The sensitivity of P2X2/3 receptor to ATP and α,β-methylene-ATP is similar (Kd ˜30 μM), and the minimal concentration of α,β-methylene-ATP necessary for activation of P2X2 receptors is at least 100 μM. The equivalence of ionic currents observed in response to consecutive application of ATP and α,β-methylene-ATP indicates a significant predominance of P2X2/3 receptors on the cell membrane. In cells, which generate ionic currents of various amplitude, i.e. greater in response to ATP application, and very low in response to application of α,β-methylene-ATP, the membrane contains mainly P2X2 receptors. […] Therefore, it has been established suddenly that peptide PT6 acts selectively on the receptors of P2X3 isoform and is a selective antagonist of purinergic P2X3 receptors.

P2X2 receptors [4] = target: T2, P2X2 receptors; experiment: Whole-cell patch clamp of P2X2-mediated currents in rat dorsal root ganglia neurons; type: cell-based; conditions: PT6 50 nM (FIG. 2)
Procedure: as §1

P2X3 receptors = P2X3 receptors (Rattus norvegicus, UniProt P49654); conditions: PT6 50 nM; rat sensory (dorsal root ganglia) neurons; agonist CTP 100 μM; holding potential −60 mV
Procedure: Neurons for the experiments are isolated from dorsal root ganglia of 9-12-day Wistar rats. The ganglia are placed to a Petri dish filled with the extracellular solution (130 mM NaCl, 5 mM KCl, 2 mM CaCl2, 2 mM MgCl2, 20 mM HEPES, pH 7.4) at room temperature, and then transferred to the enzyme solution (1 mg of trypsin and 2 mg of collagenase in 2 ml of the extracellular solution) heated up to 35° C., and incubated for 10 min. Then the ganglia are rinsed thoroughly with a pure (without enzymes) extracellular solution in another Petri dish. Single cells are isolated from the rinsed ganglia using fine needles. A dish with single cells is transferred to the electrophysiological unit. The experiments begin after all cells are settled to the dish bottom in 30 min after isolation.
Electrophysiological tests are performed using the whole-cell configuration of the classic method of patch clamp and the approach of a rapid application of a substance (agonist), which binds to P2X3 receptors and induces ion channel opening. The electrophysiological setup consists of three parts: microscope; sample application system (“jumping table”; Pharma Robot, Ukraine); and recording system of the current flowing through channels in the cell plasma membrane. […] Currents are recorded at the holding potential of −60 mV and room temperature with a Model 2400 Patch Clamp Amplifier (A-M Systems, USA). […]

Molecule	Kd (P2X2/3 receptors [1]) [µM]	minimal concentration necessary for activation of P2X2 receptors (P2X2 receptors [2])	effect on ionic currents mediated by P2X2/3 receptors (P2X2/3 receptors [3])	effect on ionic currents mediated by P2X2 receptors (P2X2 receptors [4])	decrease of the current amplitude mediated by P2X3 receptors (inhibition of currents) (P2X3 receptors) [%]
Nc1ncnc2c1ncn2[C@@H]1O[C@H](COP(=O)(O)OP(=O)(O)OP(=O)(O)O)[C@@H](O)[C@H]1O [ATP, adenosine triphosphate]	~30	–	–	–	–
Nc1ncnc2c1ncn2[C@@H]1O[C@H](COP(=O)(O)CP(=O)(O)OP(=O)(O)O)[C@@H](O)[C@H]1O [α,β-methylene-ATP]	~30	at least 100 μM	–	–	–
GYCATKGIKCNDIHCCSGLKCDSKRKVCVKG (cysteine pairing not given here) [PT6]	–	–	does not affect	does not affect	80
